From patent US9034865B2, “Pyrido [4,3-B] indole and pyrido [3,4-B] indole derivatives and methods of use” (Medivation Technologies, Inc., priority 2010, dated 2015)

How the values were obtained:
[1] = target: T1, rat adrenergic α1A receptor (Rattus norvegicus, UniProt P43140); assay: Adrenergic α1A radioligand binding ([3H]Prazosin); details: compound at 0.1 μM; read-out: Percentage inhibition of ligand binding, Adrenergic (0.1 μM) α1A
T1 construct: rat adrenergic α1A receptor obtained from Wistar Rat submaxillary glands; from tissue; host or cells: Wistar rat submaxillary glands
T1 sequence (P43140 1-466): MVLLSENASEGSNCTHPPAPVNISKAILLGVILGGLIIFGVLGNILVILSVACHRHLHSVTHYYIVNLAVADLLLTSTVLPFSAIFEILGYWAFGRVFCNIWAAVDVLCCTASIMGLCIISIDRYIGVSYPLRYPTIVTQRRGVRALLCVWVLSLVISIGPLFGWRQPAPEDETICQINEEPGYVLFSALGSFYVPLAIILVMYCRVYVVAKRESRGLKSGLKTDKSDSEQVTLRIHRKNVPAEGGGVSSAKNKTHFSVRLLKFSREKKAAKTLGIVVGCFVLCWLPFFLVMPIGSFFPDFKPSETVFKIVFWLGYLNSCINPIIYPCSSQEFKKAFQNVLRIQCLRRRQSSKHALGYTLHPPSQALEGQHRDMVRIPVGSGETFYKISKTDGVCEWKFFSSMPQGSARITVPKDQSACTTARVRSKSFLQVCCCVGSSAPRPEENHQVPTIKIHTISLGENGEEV
Experimental: To evaluate in radioligand binding assays the activity of compounds of the invention, rat adrenergic α1A receptor obtained from Wistar Rat submaxillary glands (Michel, A. et al, Br. J. Pharmacol. 98:883, 1989) in a modified Tris-HCl buffer (50 mM Tris-HCl buffer, pH 7.4, 0.5 mM EDTA) was used. Compounds of the invention were incubated with 0.25 nM [^3H]Prazosin for 60 min at 25° C. Non-specific binding was estimated in the presence of 10 μM phentolamine. Receptor proteins were filtered and washed, the filters were then counted to determine [^3H]Prazosin specifically bound. Compounds of the invention were screened at 1 μM or lower, using 1% DMSO as vehicle. Biochemical assay results are presented as the percent inhibition of specific binding in Table 3.

[2] = target: T2, human recombinant serotonin (5-Hydroxytryptamine) 5-HT7 receptor (Homo sapiens, UniProt P34969); assay: Serotonin 5-HT7 radioligand binding ([3H]LSD); details: compound at 0.1 μM; read-out: Percentage inhibition of ligand binding, Serotonin (0.1 μM) 5-HT7
T2 construct: expressed in transfected cells; host or cells: CHO
T2 sequence (P34969 whole entry): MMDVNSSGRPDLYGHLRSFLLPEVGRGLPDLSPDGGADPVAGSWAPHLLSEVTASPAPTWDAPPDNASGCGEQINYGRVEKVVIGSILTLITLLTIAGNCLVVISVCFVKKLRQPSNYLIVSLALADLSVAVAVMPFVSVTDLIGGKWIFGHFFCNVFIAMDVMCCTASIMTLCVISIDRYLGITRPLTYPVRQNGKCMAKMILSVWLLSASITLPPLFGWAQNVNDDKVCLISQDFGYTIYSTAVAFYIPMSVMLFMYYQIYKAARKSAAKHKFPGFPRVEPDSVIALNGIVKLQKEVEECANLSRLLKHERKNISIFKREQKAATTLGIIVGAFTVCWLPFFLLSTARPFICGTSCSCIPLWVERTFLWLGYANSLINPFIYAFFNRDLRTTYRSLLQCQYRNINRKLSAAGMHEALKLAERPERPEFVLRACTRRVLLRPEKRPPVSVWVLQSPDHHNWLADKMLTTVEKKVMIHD
Experimental: To evaluate in radioligand binding assays the activity of compounds of the invention, human recombinant serotonin (5-Hydroxytryptamine) 5-HT7 receptor expressed in Chinese hamster ovary (CHO) cells (Roth, B. et al, J. Pharmacol. Exp. Ther. 268:1403, 1994; Shen, Y. et al, J. Biol. Chem. 268:18200, 1993) in a modified Tris-HCl buffer (50 mM Tris-HCl, pH 7.4, 10 mM MgCl2, 0.5 mM EDTA) was used. Compounds of invention were incubated with 5.5 nM [^3H] Lysergic acid diethylamide (LSD) for 2 h at 25° C. Non-specific binding was estimated in the presence of 10 μM Serotonin (5-HT). Receptor proteins were filtered and washed, the filters were then counted to determine [^3H]LSD specifically bound. Compounds were screened at 1 μM or lower, using 1% DMSO as vehicle. Biochemical assay results are presented as the percent inhibition of specific binding in Table 4.

[3] = target: T3, human recombinant adrenergic α2C receptor (Homo sapiens, UniProt P18825); assay: Adrenergic α2C radioligand binding ([3H]MK-912); details: compound at 0.1 μM; read-out: Percentage inhibition of ligand binding, Adrenergic (0.1 μM) α2C
T3 construct: expressed in transfected cells; host or cells: insect Sf9 cells
T3 sequence (P18825 1-462): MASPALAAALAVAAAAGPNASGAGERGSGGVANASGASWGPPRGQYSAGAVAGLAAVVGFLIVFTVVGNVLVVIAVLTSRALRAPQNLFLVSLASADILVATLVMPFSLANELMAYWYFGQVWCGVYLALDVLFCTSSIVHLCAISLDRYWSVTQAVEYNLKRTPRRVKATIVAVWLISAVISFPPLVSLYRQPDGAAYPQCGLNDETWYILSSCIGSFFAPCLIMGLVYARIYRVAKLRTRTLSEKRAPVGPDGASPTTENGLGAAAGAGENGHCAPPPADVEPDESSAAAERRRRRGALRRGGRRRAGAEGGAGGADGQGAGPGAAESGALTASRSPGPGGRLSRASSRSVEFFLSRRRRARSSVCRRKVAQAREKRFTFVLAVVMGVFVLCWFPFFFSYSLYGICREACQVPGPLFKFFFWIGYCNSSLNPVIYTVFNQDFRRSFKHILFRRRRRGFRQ
Experimental: To evaluate in radioligand binding assays the activity of compounds of the invention, human recombinant adrenergic α2C receptor expressed in insect Sf9 cells (Uhlen, S. et al, J. Pharmacol. Exp. Ther. 271:1558, 1994) in a modified Tris-HCl buffer (50 mM Tris-HCl, pH 7.4, 12.5 mM MgCl2, 2 mM EDTA) was used. Compounds of the invention were incubated with 1 nM [^3H]MK-912 for 60 min at 25° C. Non-specific binding was estimated in the presence of 10 μM WB-4101. Receptor proteins were filtered and washed, the filters were then counted to determine [^3H]MK-912 specifically bound. Compounds were screened at 1 μM or lower, using 1% DMSO as vehicle. Biochemical assay results are presented as the percent inhibition of specific binding in Table 3.

[4] = target: T4, human recombinant histamine H1 receptor (Homo sapiens, UniProt P35367); assay: Histamine H1 radioligand binding ([3H]Pyrilamine); details: compound at 0.1 μM; 1.2 nM [3H]Pyrilamine; read-out: Binding data (Percentage inhibition) Histamine H1 (0.1 μM)
T4 construct: expressed in transfected cells; host or cells: CHO-K1
T4 sequence (P35367 whole entry): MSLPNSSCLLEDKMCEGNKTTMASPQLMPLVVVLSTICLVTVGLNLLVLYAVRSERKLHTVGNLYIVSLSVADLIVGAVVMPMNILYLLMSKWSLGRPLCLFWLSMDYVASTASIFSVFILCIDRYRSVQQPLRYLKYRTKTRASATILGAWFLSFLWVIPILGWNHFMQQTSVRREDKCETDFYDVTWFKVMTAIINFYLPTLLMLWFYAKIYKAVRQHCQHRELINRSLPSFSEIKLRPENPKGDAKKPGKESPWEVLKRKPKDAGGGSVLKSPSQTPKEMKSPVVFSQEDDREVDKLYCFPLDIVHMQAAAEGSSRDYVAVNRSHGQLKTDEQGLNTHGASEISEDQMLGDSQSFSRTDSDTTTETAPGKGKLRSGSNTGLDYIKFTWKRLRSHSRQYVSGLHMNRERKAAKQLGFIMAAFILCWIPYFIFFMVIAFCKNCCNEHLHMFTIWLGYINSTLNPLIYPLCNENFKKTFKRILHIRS
Experimental: To evaluate in radioligand binding assays the activity of compounds of the invention, human recombinant histamine H1 receptor expressed in Chinese hamster ovary (CHO) K1 cells (De Backer, M. et al, Biochem. Biophys. Res. Comm. 197(3):1601, 1993) in a modified Tris-HCl buffer (50 mM Tris-HCl, pH 7.4, 2 mM MgCl2, 100 mM NaCl, 250 mM Sucrose) was used. Compounds of the invention were incubated with 1.2 nM [^3H]Pyrilamine for 180 min at 25° C. Non-specific binding was estimated in the presence of 1 μM Pyrilamine. Receptor proteins were filtered and washed, the filters were then counted to determine [^3H]Pyrilamine specifically bound. Compounds were screened at 1 μM or lower, using 1% DMSO as vehicle. Biochemical assay results are presented as the percent inhibition of specific binding in Table 2.

Compound	inhibition at 0.1 µM [1] [%]	inhibition at 0.1 µM [2] [%]	inhibition at 0.1 µM [3] [%]	inhibition at 0.1 µM [4] [%]
Cc1cc(/C=C/c2ccc(C)nc2)c2c(c1)c1c(n2C)CCN(C)C1 [Compound 14]	-16	13	1	25
Cc1cc(CCc2ccc(C)nc2)c2c(c1)c1c(n2C)CCN(C)C1 [Compound 13]	2	16	2	28
Cc1cc(-c2ccc(F)cc2)c2c(c1)c1c(n2C)CCN(C)C1 [Compound 7]	1	12	8	6
Cc1cc(C#Cc2cccs2)c2[nH]c3c(c2c1)CN(C)CC3 [Compound 8]	-5	6	7	-3
Cc1cc(-c2ccncc2)c2c(c1)c1c(n2C)CCN(C)C1 [Compound 9]	4	26	1	0
C/C(=C\c1cc(C)cc2c3c(n(C)c12)CCN(C)C3)c1ccc(C)nc1 [Compound 15]	3	36	-14	2
Cc1ccc(C#Cc2cc(Cl)cc3c4c(n(C)c23)CCN(C)C4)cn1 [Compound 18]	14	8	0	12
C/C(=C\c1cc(C)cc2c3c(n(C)c12)CCN(C)C3)c1ccncc1 [Compound 11]	-14	-17	12	-3
C#Cc1cc(C)cc2c3c(n(C)c12)CCN(C)C3 [Compound 10, 6-Ethynyl-2,3,4,5-tetrahydro-2,5,8-trimethyl-1H-pyrido[4,3-b]indole]	6	14	36	5
Cc1cc(C#Cc2ccc(C)nc2)c2c(c1)c1c(n2C)CCN(C)C1 [Compound 12, 2,3,4,5-tetrahydro-2,5,8-trimethyl-6-(2-(6-methylpyridin-3-yl)ethynyl)-1H-pyrido[4,3-b]indole]	-12	5	3	-14
Cc1cc(C#Cc2ccncc2)c2c(c1)c1c(n2C)CCN(C)C1 [Compound 17]	-2	23	3	39
Cc1cc(C#Cc2nccs2)c2[nH]c3c(c2c1)CN(C)CC3 [Compound 16]	-1	35	5	9
